# Laboratory results reported in patent publication US20140080886A1, “Methods for Treating HCV” (priority 2012, published 2014).
# Where two headings read alike, the source gives them in different places.
# Legend:
# Format in all cases: cell-based
# [1] = test system: HCV replicon containing NS5A from genotype 2a; assay: Stable 1b-Con1 replicon cell line containing a portion of NS5A from genotype 2a (luciferase); details: Hepatitis C virus
# Procedure: (§1) This replicon construct contains a NotI restriction site upstream of NS5A, and a BlpI restriction site just after NS5A amino acid 214. Viral RNA from infected subjects was isolated according to Middleton et al., J VIROL METHODS 145:137-145 (2007) and Tripathi et al., ANTIVIRAL RES 73:40-49 (2007). RT-PCR was conducted on the RNA to generate a DNA fragment encoding NS5A amino acids 1-214. The PCR fragment incorporated NotI and BlpI compatible ends, and this fragment was ligated into a plasmid containing the 1b-Con1 replicon. Stable cell lines were generated by introducing these constructs into Huh-7 cells.
# (§2) Briefly, replicon-containing cells were seeded into 96-well plates at a density of 5000 cells per well in 100 μl DMEM containing 5% FBS. The following day, compounds were diluted in dimethyl sulfoxide (DMSO) to generate a 200× stock in a series of eight half-log dilutions. The dilution series was then further diluted 100-fold in the medium containing 5% FBS. […] Luciferin solution (50 μl, Promega) was added to each well, and luciferase activity was measured with a Victor II luminometer (Perkin-Elmer). The percent inhibition of HCV RNA replication was calculated for each compound concentration and the EC50 value was calculated using nonlinear regression curve fitting to the 4-parameter logistic equation and GraphPad Prism 4 software (Halfman, METHODS ENZYMOL 74 Pt C: 481-497 (1981)). […]
# [2] = test system: HCV replicon containing NS5A from genotype 2b; assay: Stable 1b-Con1 replicon cell line containing a portion of NS5A from genotype 2b (luciferase); details: Hepatitis C virus
# Procedure: as §1, §2
# [3] = test system: HCV replicons containing NS5A genes from genotype 2a HCV infected humans; assay: Transient replicon (shuttle vector) assay with NS5A genes from patient isolates, genotype 2a; details: Hepatitis C virus
# [4] = test system: HCV replicon containing NS5A from genotype 6a; assay: Stable 1b-Con1 replicon cell line containing a portion of NS5A from genotype 6a (luciferase); details: Hepatitis C virus
# Procedure: as §1, §2
# [5] = test system: HCV genotype 1a-H77 replicon; assay: HCV stable subgenomic replicon cell culture assay (luciferase reporter), genotype 1a-H77; details: Hepatitis C virus
# [6] = test system: HCV replicons containing NS5A genes from genotype 3a HCV infected humans; assay: Transient replicon (shuttle vector) assay with NS5A genes from patient isolates, genotype 3a
# [7] = test system: HCV replicons containing NS5A genes from genotype 2b HCV infected humans; assay: Transient replicon (shuttle vector) assay with NS5A genes from patient isolates, genotype 2b
# [8] = test system: HCV genotype 1b-Con1 replicon; assay: HCV stable subgenomic replicon cell culture assay (luciferase reporter), genotype 1b-Con1; details: Hepatitis C virus
# [9] = test system: HCV replicon containing NS5A from genotype 4a; assay: Stable 1b-Con1 replicon cell line containing a portion of NS5A from genotype 4a (luciferase); details: Hepatitis C virus
# Procedure: as §1, §2
# [10] = test system: HCV replicon containing NS5A from genotype 3a; assay: Stable 1b-Con1 replicon cell line containing a portion of NS5A from genotype 3a (luciferase); details: Hepatitis C virus
# Procedure: as §1, §2
# [11] = test system: HCV replicon containing NS5A from genotype 5a; assay: Stable 1b-Con1 replicon cell line containing a portion of NS5A from genotype 5a (luciferase); details: Hepatitis C virus
# Procedure: as §1, §2
# [12] = test system: HCV replicons containing NS5A genes from genotype 1b HCV infected humans; assay: Transient replicon (shuttle vector) assay with NS5A genes from patient isolates, genotype 1b
# [13] = test system: HCV replicons containing NS5A genes from genotype 6a HCV infected humans; assay: Transient replicon (shuttle vector) assay with NS5A genes from patient isolates, genotype 6a
# [14] = read-out: Mean EC50, pM, ± Std. Dev.
compound,measurement,setting,value
"COC(=O)N[C@H](C(=O)N1CCC[C@H]1C(=O)Nc1ccc([C@@H]2CC[C@@H](c3ccc(NC(=O)[C@@H]4CCCN4C(=O)[C@@H](NC(=O)OC)C(C)C)cc3)N2c2ccc(C(C)(C)C)cc2)cc1)C(C)C [Compound 1, dimethyl (2S,2′S)-1,1′-((2S,2′S)-2,2′-(4,4′-((2S,5 S)-1-(4-tert-butylphenyl)pyrrolidine-2,5-diyl)bis(4,1-phenylene))bis(azanediyl)bis(oxomethylene)bis(pyrrolidine-2,1-diyl))bis(3-methyl-1-oxobutane-2,1-diyl)dicarbamate]",EC50,[1]; read-out: EC50 value,< 20 pM
same,EC50,[1]; [14],12.4 ± 2.7 pM
same,EC50,[2]; read-out: EC50 value,< 20 pM
same,EC50,[2]; [14],4.3 ± 1.2 pM
same,EC50,"[3]; Genotype 2a, isolate 34021",5.07 pM
same,EC50,"[3]; Genotype 2a, isolate 84836",11.3 pM
same,EC50,"[3]; Genotype 2a, isolate 88935",2.56 pM
same,EC50,"[3]; Genotype 2a, isolate 88939",2.03 pM
same,EC50,"[3]; Genotype 2a, isolate 91106",3.39 pM
same,EC50,"[3]; Genotype 2a, isolate 10124423",3.46 pM
same,EC50,"[3]; Genotype 2a, isolate U01",4.79 pM
same,EC50,"[3]; read-out: EC50, pM, Mean ± Std. Dev., mean of the genotype 2a isolates (methionine at NS5A position 31)",3.8 pM
same,EC50,[4]; read-out: EC50 value,< 500 pM
same,EC50,[4]; [14],415 ± 97 pM
same,EC50,"[5]; Genotype 1a-H77 replicon, 0% human plasma (5% fetal bovine serum), read-out: Mean EC50, pM, ± Std. Dev.",14.1 ± 6.8 pM
same,EC50,"[5]; against HCV genotype 1a (summary statement), read-out: EC50 value",< 20 pM
same,EC50,"[5]; genotype 1a and 1b replicons together, in the presence of 5% FBS, read-out: mean EC50 values",5 to 14 pM
same,EC50,"[6]; Genotype 3a, isolate 55500, variant K30 (A30K)",55.2 pM
same,EC50,"[6]; Hepatitis C virus, Genotype 3a, isolate 7153-55",2.32 pM
same,EC50,"[6]; Hepatitis C virus, Genotype 3a, isolate 9110-47",3.87 pM
same,EC50,"[6]; Hepatitis C virus, Genotype 3a, isolate 48557",11.4 pM
same,EC50,"[6]; Hepatitis C virus, Genotype 3a, isolate 55500, variant K30 (A30K)",55 pM
same,EC50,"[6]; Hepatitis C virus, Genotype 3a, isolate 55510",3.03 pM
same,EC50,"[6]; Hepatitis C virus, Genotype 3a, isolate 55534",3.28 pM
same,EC50,"[6]; Hepatitis C virus, Genotype 3a, isolate 57223",4.14 pM
same,EC50,"[6]; Hepatitis C virus, Genotype 3a, isolate 57314",2.02 pM
same,EC50,"[6]; Hepatitis C virus, Genotype 3a, isolate 85501",3.05 pM
same,EC50,"[6]; Hepatitis C virus, Genotype 3a, isolate 89241, variant V28",2.71 pM
same,EC50,"[6]; Hepatitis C virus, Genotype 3a, isolate 95079",15.2 pM
same,EC50,"[6]; Hepatitis C virus, Genotype 3a, isolate 9810069",2.52 pM
same,EC50,"[6]; Hepatitis C virus, read-out: EC50, pM, Mean ± Std. Dev., mean of 12 of the 13 genotype 3a samples (without the A30K sample)",4.5 pM
same,EC50,"[6]; read-out: EC50, pM, Mean ± Std. Dev., mean of 12 of the 13 genotype 3a samples (without the A30K sample)",4.54 ± 4.26 pM
same,EC50,"[7]; Hepatitis C virus, Genotype 2b, isolate 48477",1.11 pM
same,EC50,"[7]; Hepatitis C virus, Genotype 2b, isolate 51629, variant F28",44.7 pM
same,EC50,"[7]; Hepatitis C virus, Genotype 2b, isolate 9992612",5.15 pM
same,loss in activity,[7]; genotype 2b sample containing L28F variant,75 fold
same,EC50,"[7]; read-out: EC50, pM, Mean ± Std. Dev., mean of 13/14 genotype 2b samples (without the L28F sample)",1.08 ± 1.23 pM
same,EC50,"[8]; Genotype 1b-Con1 replicon, 0% human plasma (5% fetal bovine serum), read-out: Mean EC50, pM, ± Std. Dev.",5 ± 1.9 pM
same,EC50,"[8]; against HCV genotype 1b (summary statement), read-out: EC50 value",< 20 pM
same,EC50,[9]; read-out: EC50 value,< 20 pM
same,EC50,[9]; [14],1.71 ± 0.88 pM
same,EC50,[10]; read-out: EC50 value,< 20 pM
same,EC50,[10]; [14],19.3 ± 5.8 pM
same,EC50,[11]; read-out: EC50 value,< 20 pM
same,EC50,[11]; [14],4.3 ± 0.9 pM
same,EC50,"[12]; Hepatitis C virus, Genotype 1b, isolate 1393",1.15 pM
same,EC50,"[12]; Hepatitis C virus, Genotype 1b, isolate 4377",1.53 pM
same,EC50,"[12]; Hepatitis C virus, Genotype 1b, isolate 4386",1.21 pM
same,EC50,"[12]; Hepatitis C virus, Genotype 1b, isolate 4410",1.2 pM
same,EC50,"[12]; Hepatitis C virus, Genotype 1b, isolate 9432",1.12 pM
same,EC50,"[12]; Hepatitis C virus, read-out: EC50, pM, Mean ± Std. Dev, mean of the 11 genotype 1b clinical isolates",1 pM
same,EC50,"[12]; read-out: EC50, pM, Mean ± Std. Dev, mean of the 11 genotype 1b clinical isolates",1.03 ± 0.23 pM
same,EC50,"[13]; Hepatitis C virus, isolate 1110880, variant L28",42 pM
same,EC50,"[13]; Hepatitis C virus, isolate 1110880-L28F, variant F28 (L28F mutation introduced)",68 pM
same,EC50,"[13]; isolate 1110880, variant L28",42.3 pM
same,EC50,"[13]; isolate 1110880-L28F, variant F28 (L28F mutation introduced)",68 pM
